According to PubChem BioAssay (NCI):
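GI50: concentration for 50% inhibition of growth. TGI marks complete inhibition of growth.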

Experiments:
Assay in all cases: NCI anticancer screen, dose series, 384-well format
HT29 colon = system: HT29 colon
SK-OV-3 ovarian = system: SK-OV-3 ovarian
RPMI-8226 leukemia = system: RPMI-8226 leukemia
DU-145 prostate = system: DU-145 prostate
OVCAR-8 ovarian = system: OVCAR-8 ovarian
SW-620 colon = system: SW-620 colon
SK-MEL-2 melanoma = system: SK-MEL-2 melanoma
HCC-2998 colon = system: HCC-2998 colon
NCI-H522 lung = system: NCI-H522 lung
OVCAR-4 ovarian = system: OVCAR-4 ovarian
UACC-257 melanoma = system: UACC-257 melanoma
HCT-15 colon = system: HCT-15 colon
SR leukemia = system: SR leukemia
SK-MEL-28 melanoma = system: SK-MEL-28 melanoma
HL-60(TB) leukemia = system: HL-60(TB) leukemia
OVCAR-5 ovarian = system: OVCAR-5 ovarian
MOLT-4 leukemia = system: MOLT-4 leukemia
HOP-92 NSCLC = system: HOP-92 NSCLC
PC-3 prostate = system: PC-3 prostate
CAKI-1 renal = system: CAKI-1 renal
MCF7 breast = system: MCF7 breast
SNB-19 CNS = system: SNB-19 CNS
SF-268 CNS = system: SF-268 CNS
MDA-MB-468 breast = system: MDA-MB-468 breast
HCT-116 colon = system: HCT-116 colon
SF-539 CNS = system: SF-539 CNS
MDA-MB-231 breast = system: MDA-MB-231 breast
NCI-H322M lung = system: NCI-H322M lung
MDA-MB-435 melanoma = system: MDA-MB-435 melanoma
A498 renal = system: A498 renal
UACC-62 melanoma = system: UACC-62 melanoma
HS 578T breast = system: HS 578T breast
HOP-62 NSCLC = system: HOP-62 NSCLC
CCRF-CEM leukemia = system: CCRF-CEM leukemia
NCI-H460 NSCLC = system: NCI-H460 NSCLC
NCI/ADR-RES ovarian = system: NCI/ADR-RES ovarian
NCI-H226 lung = system: NCI-H226 lung
RXF 393 renal = system: RXF 393 renal
OVCAR-3 ovarian = system: OVCAR-3 ovarian
786-0 renal = system: 786-0 renal
K-562 leukemia = system: K-562 leukemia
M14 melanoma = system: M14 melanoma
NCI-H23 lung = system: NCI-H23 lung
KM12 colon = system: KM12 colon
LOX IMVI melanoma = system: LOX IMVI melanoma
TK-10 renal = system: TK-10 renal
UO-31 renal = system: UO-31 renal

## N#CCC1(n2cc(-c3ncnc4[nH]ccc34)cn2)CN(C2CCN(C(=O)c3ccnc(C(F)(F)F)c3F)CC2)C1
HT29 colon
  GI50: > 73 µM
  TGI: > 100 µM
SK-OV-3 ovarian
  GI50: > 73.7 µM
  TGI: > 100 µM
RPMI-8226 leukemia
  GI50: 22.2 µM
  TGI: 65.7 µM
DU-145 prostate
  GI50: 97.1 µM
  TGI: > 100 µM
OVCAR-8 ovarian
  GI50: > 100 µM
  TGI: > 100 µM
SW-620 colon
  GI50: > 61.1 µM
  TGI: > 100 µM
SK-MEL-2 melanoma
  GI50: > 100 µM
  TGI: > 100 µM
HCC-2998 colon
  GI50: > 100 µM
  TGI: > 100 µM
NCI-H522 lung
  GI50: 18.4 µM
  TGI: 39.2 µM
OVCAR-4 ovarian
  GI50: > 100 µM
  TGI: > 100 µM
UACC-257 melanoma
  GI50: > 81.8 µM
  TGI: > 100 µM
HCT-15 colon
  GI50: > 78.9 µM
  TGI: > 100 µM
SR leukemia
  GI50: 23.9 µM
  TGI: 39.4 µM
SK-MEL-28 melanoma
  GI50: > 100 µM
  TGI: > 100 µM
HL-60(TB) leukemia
  GI50: > 62 µM
  TGI: 97.7 µM
OVCAR-5 ovarian
  GI50: > 100 µM
  TGI: > 100 µM
MOLT-4 leukemia
  GI50: 16.8 µM
  TGI: 35.4 µM
HOP-92 NSCLC
  GI50: 40.1 µM
  TGI: > 100 µM
PC-3 prostate
  GI50: > 100 µM
  TGI: > 100 µM
CAKI-1 renal
  GI50: > 84.9 µM
  TGI: > 100 µM
MCF7 breast
  GI50: > 71.8 µM
  TGI: > 100 µM
SNB-19 CNS
  GI50: > 100 µM
  TGI: > 100 µM
SF-268 CNS
  GI50: > 39.8 µM
  TGI: > 69.3 µM
MDA-MB-468 breast
  GI50: 17.6 µM
  TGI: 50.5 µM
HCT-116 colon
  GI50: > 79.5 µM
  TGI: > 100 µM
SF-539 CNS
  GI50: > 76.2 µM
  TGI: > 100 µM
MDA-MB-231 breast
  GI50: 45.8 µM
  TGI: > 100 µM
NCI-H322M lung
  GI50: > 100 µM
  TGI: > 100 µM
MDA-MB-435 melanoma
  GI50: > 100 µM
  TGI: > 100 µM
A498 renal
  GI50: > 100 µM
  TGI: > 100 µM
UACC-62 melanoma
  GI50: > 61.3 µM
  TGI: > 100 µM
HS 578T breast
  GI50: 30.9 µM
  TGI: 92.9 µM
HOP-62 NSCLC
  GI50: > 68.2 µM
  TGI: > 100 µM
CCRF-CEM leukemia
  GI50: 20.6 µM
  TGI: 44.9 µM
NCI-H460 NSCLC
  GI50: 49.6 µM
  TGI: > 100 µM
NCI/ADR-RES ovarian
  GI50: > 100 µM
  TGI: > 100 µM
NCI-H226 lung
  GI50: 33.5 µM
  TGI: > 82.9 µM
RXF 393 renal
  GI50: 58.3 µM
  TGI: > 100 µM
OVCAR-3 ovarian
  GI50: > 71.5 µM
  TGI: > 100 µM
786-0 renal
  GI50: > 96.4 µM
  TGI: > 100 µM
K-562 leukemia
  GI50: 34.5 µM
  TGI: > 100 µM
M14 melanoma
  GI50: > 88.6 µM
  TGI: > 100 µM
NCI-H23 lung
  GI50: 31.7 µM
  TGI: > 100 µM
KM12 colon
  GI50: 42.3 µM
  TGI: > 100 µM
LOX IMVI melanoma
  GI50: > 100 µM
  TGI: > 100 µM
TK-10 renal
  GI50: > 100 µM
  TGI: > 100 µM
UO-31 renal
  GI50: 72.5 µM
  TGI: > 100 µM

## CNCc1ccc(-c2[nH]c3cc(F)cc4c3c2CCNC4=O)cc1
HT29 colon
  GI50: 10 µM
  TGI: 23.4 µM
SK-OV-3 ovarian
  GI50: 20.6 µM
  TGI: 45.3 µM
RPMI-8226 leukemia
  GI50: 8.37 µM
  TGI: 21.6 µM
DU-145 prostate
  GI50: 13.9 µM
  TGI: 27.4 µM
OVCAR-8 ovarian
  GI50: 10.4 µM
  TGI: 23.7 µM
SW-620 colon
  GI50: 7.46 µM
  TGI: 23.6 µM
SK-MEL-2 melanoma
  GI50: 11.9 µM
  TGI: 24.3 µM
HCC-2998 colon
  GI50: 11.3 µM
  TGI: 23.8 µM
NCI-H522 lung
  GI50: 15.6 µM
  TGI: 29.3 µM
OVCAR-4 ovarian
  GI50: 21 µM
  TGI: 38.2 µM
UACC-257 melanoma
  GI50: 12.8 µM
  TGI: 26.4 µM
HCT-15 colon
  GI50: 15.1 µM
  TGI: 31.1 µM
SR leukemia
  GI50: 1.54 µM
  TGI: 3.93 µM
SK-MEL-28 melanoma
  GI50: 15.2 µM
  TGI: 28.8 µM
HL-60(TB) leukemia
  GI50: 8.28 µM
  TGI: 19.1 µM
OVCAR-5 ovarian
  GI50: 15.8 µM
  TGI: 38.9 µM
MOLT-4 leukemia
  GI50: 2.17 µM
  TGI: 5.64 µM
HOP-92 NSCLC
  GI50: 12.9 µM
  TGI: 27.9 µM
PC-3 prostate
  GI50: 16.1 µM
  TGI: 38 µM
CAKI-1 renal
  GI50: 7.56 µM
  TGI: 19.8 µM
MCF7 breast
  GI50: 6.36 µM
  TGI: 18.7 µM
SNB-19 CNS
  GI50: 19 µM
  TGI: > 48.4 µM
SF-268 CNS
  GI50: 14.1 µM
  TGI: 29.1 µM
MDA-MB-468 breast
  GI50: 4.13 µM
  TGI: 11.5 µM
HCT-116 colon
  GI50: 6.6 µM
  TGI: 19.4 µM
SF-539 CNS
  GI50: 12.4 µM
  TGI: 25.1 µM
MDA-MB-231 breast
  GI50: 8.58 µM
  TGI: 21.8 µM
NCI-H322M lung
  GI50: 17.2 µM
  TGI: 32.4 µM
MDA-MB-435 melanoma
  GI50: 19 µM
  TGI: 34.2 µM
A498 renal
  GI50: 15.7 µM
  TGI: 29.3 µM
UACC-62 melanoma
  GI50: 12.4 µM
  TGI: 25 µM
HS 578T breast
  GI50: 10.4 µM
  TGI: 22.4 µM
HOP-62 NSCLC
  GI50: 9.39 µM
  TGI: 23.4 µM
CCRF-CEM leukemia
  GI50: 3.68 µM
  TGI: 13.1 µM
NCI-H460 NSCLC
  GI50: 6.31 µM
  TGI: 19.6 µM
NCI/ADR-RES ovarian
  GI50: 38.7 µM
  TGI: > 92.6 µM
NCI-H226 lung
  GI50: 7.9 µM
  TGI: 21.9 µM
RXF 393 renal
  GI50: 10.6 µM
  TGI: 23.8 µM
OVCAR-3 ovarian
  GI50: 16 µM
  TGI: 31 µM
786-0 renal
  GI50: 7.97 µM
  TGI: 21.3 µM
K-562 leukemia
  GI50: 7.92 µM
  TGI: 20.1 µM
M14 melanoma
  GI50: 14.7 µM
  TGI: 28 µM
NCI-H23 lung
  GI50: 12.1 µM
  TGI: 24.8 µM
KM12 colon
  GI50: 15.7 µM
  TGI: 30.2 µM
LOX IMVI melanoma
  GI50: 13 µM
  TGI: 26 µM
TK-10 renal
  GI50: 18.8 µM
  TGI: 46.5 µM
UO-31 renal
  GI50: 12.1 µM
  TGI: 28.5 µM
